In ChEMBL document CHEMBL4308870, “Discovery and SAR studies of novel 2-anilinopyrimidine-based selective inhibitors against triple-negative breast cancer cell line MDA-MB-468” (2019):

What was measured:
Type in all cases: functional
MCF7 [1] = experiment: Cytotoxicity against human MCF7 cells assessed as cell viability at 10 uM after 48 hrs by MTT assay relative to control; conditions: MCF7, 48 h, read-out: Activity
MDA-MB-468 [2] = experiment: Cytotoxicity against EGFR over-expressing human MDA-MB-468 cells assessed as cell viability at 10 uM after 48 hrs by MTT assay relative to control; conditions: MDA-MB-468, 48 h, read-out: Activity
MCF7 [3] = experiment: cells; conditions: Homo sapiens, MCF7, 48 h
Description: Growth inhibition of human MCF7 cells after 48 hrs by MTT assay

MDA-MB-468 [4] = experiment: cells; conditions: Homo sapiens, MDA-MB-468, 48 h
Description: Growth inhibition of EGFR over-expressing human MDA-MB-468 cells after 48 hrs by MTT assay

[5] = Selectivity index, ratio of GI50 for human MCF7 cells to GI50 for EGFR over-expressing human MDA-MB-468 cells

CCN(CC)CCCOc1ccc(Nc2nccc(N3CCCC3)n2)cc1
viability at 10 µM (MCF7 [1]): 78.5% | viability at 10 µM (MDA-MB-468 [2]): 69.7%

ClC1CCN(c2ccnc(Nc3ccc(OCCCN4CCCCC4)cc3)n2)CC1
viability at 10 µM (MCF7 [1]): 87.1% | viability at 10 µM (MDA-MB-468 [2]): 52.1% | GI50 (MCF7 [3]): > 30 µM | GI50 (MDA-MB-468 [4]): 11.5 µM | RatioGI50 [5]: >2.6

c1cc(N2CCOCC2)nc(Nc2ccc(OCCCN3CCCCC3)cc2)n1
viability at 10 µM (MCF7 [1]): 95.7% | viability at 10 µM (MDA-MB-468 [2]): 86.8%

CCN(CC)CCCOc1ccc(Nc2nccc(N3CCC(C)CC3)n2)cc1
viability at 10 µM (MCF7 [1]): 93.2% | viability at 10 µM (MDA-MB-468 [2]): 16.9% | GI50 (MCF7 [3]): > 30 µM | GI50 (MDA-MB-468 [4]): 6.9 µM | RatioGI50 [5]: >4.3

c1cc(N2CCSCC2)nc(Nc2ccc(OCCCN3CCCCC3)cc2)n1
viability at 10 µM (MCF7 [1]): 60% | viability at 10 µM (MDA-MB-468 [2]): 78.1%

c1cc(N2CCCC2)nc(Nc2ccc(OCCCN3CCCCC3)cc2)n1
viability at 10 µM (MCF7 [1]): 66.1% | viability at 10 µM (MDA-MB-468 [2]): 58.1%

c1cc(N2CCSCC2)nc(Nc2ccc(OCCCN3CCOCC3)cc2)n1
viability at 10 µM (MCF7 [1]): 86.1% | viability at 10 µM (MDA-MB-468 [2]): 73.4%

CC1CCN(c2ccnc(Nc3ccc(OCCCN4CCOCC4)cc3)n2)CC1
viability at 10 µM (MCF7 [1]): 71.8% | viability at 10 µM (MDA-MB-468 [2]): 51.3% | GI50 (MCF7 [3]): > 30 µM | GI50 (MDA-MB-468 [4]): 16.3 µM | RatioGI50 [5]: >1.8

CN1CCN(c2ccnc(Nc3ccc(OCCCN4CCSCC4)cc3)n2)CC1
viability at 10 µM (MCF7 [1]): 79.8% | viability at 10 µM (MDA-MB-468 [2]): 56.5%

COc1cc2ncnc(Nc3ccc(F)c(Cl)c3)c2cc1OCCCN1CCOCC1 [GEFITINIB]
viability at 10 µM (MCF7 [1]): 70.3% | viability at 10 µM (MDA-MB-468 [2]): 60.3%

c1cc(N2CCCCC2)nc(Nc2ccc(OCCCN3CCOCC3)cc2)n1
viability at 10 µM (MCF7 [1]): 61.8% | viability at 10 µM (MDA-MB-468 [2]): 55.2% | GI50 (MCF7 [3]): > 30 µM | GI50 (MDA-MB-468 [4]): 18.3 µM

c1cc(N2CCSCC2)nc(Nc2ccc(OCCCN3CCSCC3)cc2)n1
viability at 10 µM (MCF7 [1]): 77.8% | viability at 10 µM (MDA-MB-468 [2]): 65%

CC1CCN(c2ccnc(Nc3ccc(OCCCN4CCCCC4)cc3)n2)CC1
viability at 10 µM (MCF7 [1]): 73.7% | viability at 10 µM (MDA-MB-468 [2]): 21.3% | GI50 (MCF7 [3]): 28.1 µM | GI50 (MDA-MB-468 [4]): 6.4 µM | RatioGI50 [5]: 4.4

CCN(CC)c1ccnc(Nc2ccc(OCCCN3CCSCC3)cc2)n1
viability at 10 µM (MCF7 [1]): 91.9% | viability at 10 µM (MDA-MB-468 [2]): 36% | GI50 (MCF7 [3]): 27.3 µM | GI50 (MDA-MB-468 [4]): 7.6 µM | RatioGI50 [5]: 3.6

CCN(CC)CCCOc1ccc(Nc2nccc(N3CCCCC3)n2)cc1
viability at 10 µM (MCF7 [1]): 95.4% | viability at 10 µM (MDA-MB-468 [2]): 62%

CCN(CC)c1ccnc(Nc2ccc(OCCCN3CCCCC3)cc2)n1
viability at 10 µM (MCF7 [1]): 69.7% | viability at 10 µM (MDA-MB-468 [2]): 53.1% | GI50 (MCF7 [3]): 18.3 µM | GI50 (MDA-MB-468 [4]): 11.4 µM | RatioGI50 [5]: 1.6

c1cc(N2CCOCC2)nc(Nc2ccc(OCCCN3CCSCC3)cc2)n1
viability at 10 µM (MCF7 [1]): 67.9% | viability at 10 µM (MDA-MB-468 [2]): 57.4%

CCN(CC)CCCOc1ccc(Nc2nccc(N3CCOCC3)n2)cc1
viability at 10 µM (MCF7 [1]): 66.5% | viability at 10 µM (MDA-MB-468 [2]): 79.4%

c1cc(N2CCOCC2)nc(Nc2ccc(OCCCN3CCOCC3)cc2)n1
viability at 10 µM (MCF7 [1]): 83.2% | viability at 10 µM (MDA-MB-468 [2]): 84.5%

ClC1CCN(c2ccnc(Nc3ccc(OCCCN4CCOCC4)cc3)n2)CC1
viability at 10 µM (MCF7 [1]): 93.3% | viability at 10 µM (MDA-MB-468 [2]): 61.6%

c1cc(N2CCCCC2)nc(Nc2ccc(OCCCN3CCCCC3)cc2)n1
viability at 10 µM (MCF7 [1]): 86.7% | viability at 10 µM (MDA-MB-468 [2]): 45.1% | GI50 (MCF7 [3]): > 30 µM | GI50 (MDA-MB-468 [4]): 9.2 µM | RatioGI50 [5]: >3.3

CN1CCN(c2ccnc(Nc3ccc(OCCCN4CCOCC4)cc3)n2)CC1
viability at 10 µM (MCF7 [1]): 89.6% | viability at 10 µM (MDA-MB-468 [2]): 80.7%

CC1CCN(c2ccnc(Nc3ccc(OCCCN4CCSCC4)cc3)n2)CC1
viability at 10 µM (MCF7 [1]): 79.5% | viability at 10 µM (MDA-MB-468 [2]): 61.3%

c1cc(N2CCCCC2)nc(Nc2ccc(OCCCN3CCSCC3)cc2)n1
viability at 10 µM (MCF7 [1]): 72.9% | viability at 10 µM (MDA-MB-468 [2]): 71.8%

CCN(CC)c1ccnc(Nc2ccc(OCCCN3CCOCC3)cc2)n1
viability at 10 µM (MCF7 [1]): 94.9% | viability at 10 µM (MDA-MB-468 [2]): 69.7%

CN1CCN(c2ccnc(Nc3ccc(OCCCN4CCCCC4)cc3)n2)CC1
viability at 10 µM (MCF7 [1]): 76.9% | viability at 10 µM (MDA-MB-468 [2]): 71.7%

CCN(CC)CCCOc1ccc(Nc2nccc(N3CCSCC3)n2)cc1
viability at 10 µM (MCF7 [1]): 86.4% | viability at 10 µM (MDA-MB-468 [2]): 88%

CCN(CC)CCCOc1ccc(Nc2nccc(N3CCN(C)CC3)n2)cc1
viability at 10 µM (MCF7 [1]): 67% | viability at 10 µM (MDA-MB-468 [2]): 64.6%

ClC1CCN(c2ccnc(Nc3ccc(OCCCN4CCSCC4)cc3)n2)CC1
viability at 10 µM (MCF7 [1]): 87.7% | viability at 10 µM (MDA-MB-468 [2]): 62.7%

c1cc(N2CCCC2)nc(Nc2ccc(OCCCN3CCOCC3)cc2)n1
viability at 10 µM (MCF7 [1]): 89% | viability at 10 µM (MDA-MB-468 [2]): 77.1%

c1cc(N2CCCC2)nc(Nc2ccc(OCCCN3CCSCC3)cc2)n1
viability at 10 µM (MCF7 [1]): 84.7% | viability at 10 µM (MDA-MB-468 [2]): 78.3%
